Results published in US5939387A, “Method of treating insulin resistance” (Eli Lilly and Company, priority 1996, dated 1999).
*: point of attachment. p‑methylhippuroyl = Cc1ccc(C(=O)NCC(=O)*)cc1

Legend:
[1] = tested on: Male Fischer 344 rats 26 months of age; assay: Aged Rat Study (oral glucose tolerance test); format: in vivo; conditions: 2 μg/kg sc daily for 6 weeks
Method: Animals: Male Fischer 344 rats 26 months of age were randomly assigned to three treatment groups (8 animals per group). Animals were housed in individual cages in a temperature and humidity-controlled environment and exposed to 12 h light/12 h dark lighting schedule (lights on at 0600 h). Animals were fed ad libitum on a daily basis.
Treatments: Animals received daily injection (sc., 0.5 ml at 0700 h) of vehicle; active compound, 2 μg/kg body weight for six weeks. At the end of the treatment period and one day prior to testing, food was removed and animals were fasted for 16 hours. Glucose tolerance test was initiated at 0700 h in conscious and freely moving rats. Blood was collected by tail clipping method. A control blood sample (0.2 mL) was collected before ingesting glucose (2.5 g/kg body weight). Subsequent blood samples were collected at 30, 60, 90 and 120 min. after glucose ingestion. Blood was collected on ice and glucose concentrations were determined by bichromatic analysis using the IL Monarch Chemistry Systems (Cat. # 35199, Instrumentation Laboratory, Mass.). Plasma was separated and samples were kept frozen (-20° C.) until assay for insulin concentrations using double antibody radioimmuonoassay. […]
Area under the response curve was calculated using the trapezoidal method and data were analyzed by ANOVA with Duncan's multiple range test.

[2] = tested on: Zucker Diabetic Fatty (ZDF/Gmi-fa/fa) male rats; assay: ZDF Male Rat Assay; format: in vivo; conditions: for Total Body Mass, final weight / Epididymal Fat weight / Lean Mass, final weight: ZDF rats; for Total Body Mass, final weight: mean of 8; for Epididymal Fat weight / Lean Mass, final weight: 6 to 14 weeks of age
Excerpt: A growth hormone releasing agent is continuously administered to Zucker diabetic male rats subcutaneously by use of an "Alzet" mini osmotic pump. The treatment was started at approximately 6 weeks of age and continued for approximately 6-8 weeks. The experiment was designed to allow the study of changes in the typical plasma glucose and insulin level profiles with the progression of the diabetic disease state.
Zucker Diabetic Fatty (ZDF/Gmi™-fa/fa) male rats were obtained from Genetic Models Inc. (Indianapolis, Ind.). The rats were maintained on Purina Formula 5008 rat chow (Purina Mills, Inc., St. Louis, Mo.) and housed in a light controlled room of alternating 12 hour cycles of light and dark. Rats were singly housed and given free access to food and water. At 5 weeks of age, an oral glucose tolerance test (OGTT: 16 hr fast, oral glucose concentration at 2.5 grams/kg body weight; Butler dextrose solution 50%, lot # 3342, Ft. Collins, Colo.; time points at 0, 30, 60, and 120 minutes) was given to each rat and their plasma assayed for glucose and insulin levels. At 6 weeks of age Alzet minipumps, containing a 1.5 inch polyethylene tube extensions (Model 2001, lot # 040401, 1.0 μl/hr, 7 days; Alza Corporation, Palo Alto, Calif.) were implanted subcutaneously. Animals were anesthetized with isoflurane at approximately 2-3% in oxygen. Each rat was shaved and a Povidone Iodine scrub was used at the site of implantation. A small incision was made above and just posterior to the shoulder. A small pocket was made and the pump placed in so the delivery port was away from the incision. The incision was then closed with wound clips and the rat observed and kept warm until awake. At the end of 7 days the pumps were removed from the rat and a new pump implanted subcutaneously as previously described. Pumps contained vehicle (PBS) or a growth hormone releasing agent (8 rats/group).
The GH releasing agent was prepared at concentrations of 625 and 62.5 μg/mL and loaded into Alzet pumps using sterile techniques. Body weight and food consumption were monitored once a week. Rats were bled from the tail for plasma glucose, insulin, and growth hormone levels weekly. One week prior to sacrificing the rats, an I.P. injection of tetracycline was given to each rat and then again the day before sacrificing (20 mg/mL; 0.5 mL/animal) to determine bone growth.
Assays: Plasma glucose concentrations were determined by the glucose hexokinase method (IL Test GLucose, lot # I1040502; Instrumentation Laboratory Company, Lexington, Mass.) with a model 2000 Monarch (Instrumentation Laboratory Company, Lexington, Mass.). Insulin was determined with a Coat-a-Count kit (Diagnostic Products Corporation, Los Angeles, Calif.) using a rat insulin standard (Lilly Research Laboratories, Indianapolis, Ind.). Glucagon was assayed with a double antibody procedure using guinea pig anti-glucagon (Catalog no. 1032; Linco Research, St. Louis, Mo.), goat anti-guinea pig (lot # T67-7GZ-237); Lilly Research Laboratories, Indianapolis, Ind.) and ^125 I-glucagon (DuPont New England Nuclear, Wilmington, Del.). Growth hormone was assayed using rat growth hormone standard (purchased from Parlow, Torrance Calif.; rGH-RP-2, lot AFP-3190B), anti rGH (purchased from Parlow, Torrance Calif.; rGH-s-r, lot AFP411S), ^125 I-rGH (Corning-Hazelton, Vienna, Va.) and protein A IGSL100 (Enzyme Center, Malden, Mass.).

[3] = age 6 weeks, 0.001 μg/min continuous infusion
[4] = age 6 weeks, 0.01 μg/min continuous infusion
[5] = age 7 weeks, 0.001 μg/min continuous infusion
[6] = age 7 weeks, 0.01 μg/min continuous infusion
[7] = age 8 weeks, 0.001 μg/min continuous infusion
[8] = age 8 weeks, 0.01 μg/min continuous infusion
[9] = age 9 weeks, 0.001 μg/min continuous infusion
[10] = age 9 weeks, 0.01 μg/min continuous infusion
[11] = age 10 weeks, 0.001 μg/min continuous infusion
[12] = age 10 weeks, 0.01 μg/min continuous infusion
[13] = age 11 weeks, 0.001 μg/min continuous infusion
[14] = age 11 weeks, 0.01 μg/min continuous infusion
[15] = age 12 weeks, 0.001 μg/min continuous infusion
[16] = age 12 weeks, 0.01 μg/min continuous infusion
[17] = age 13 weeks, 0.001 μg/min continuous infusion
[18] = age 13 weeks, 0.01 μg/min continuous infusion

Substance: p-methyl hippuroyl Leu(27) (1-44)OH hGHRH ({p‑methylhippuroyl}-YADAIFTNSYRKVLGQLSARKLLQDILSRQQGESNQERGARARL-OH) [GHRH Analog, functional analog of GHRH disclosed in EP 511 003, agent capable of stimulating growth hormone release]
- Plasma Glucose, oral glucose tolerance test ([1]; time 0 min): 104.2 mg/dL
- Plasma Insulin, oral glucose tolerance test ([1]; time 0 min): 1.26 ng/mL
- Plasma Glucose, oral glucose tolerance test ([1]; time 30 min): 148.4 mg/dL
- Plasma Insulin, oral glucose tolerance test ([1]; time 30 min): 1.64 ng/mL
- Plasma Glucose, oral glucose tolerance test ([1]; time 60 min): 154.8 mg/dL
- Plasma Insulin, oral glucose tolerance test ([1]; time 60 min): 1.92 ng/mL
- Plasma Glucose, oral glucose tolerance test ([1]; time 120 min): 148.1 mg/dL
- Plasma Insulin, oral glucose tolerance test ([1]; time 120 min): 1.41 ng/mL
- AUC, area under the plasma glucose vs. time curve ([1]; trapezoidal method): 16,833.80 mg. min/dL
- AUC, area under the plasma insulin vs. time curve ([1]; trapezoidal method): 196.25 ng·min/mL
- Total Body Mass, final weight ([2]; 0.001 μg/min continuous sc infusion from 6 to 14 weeks of age): 327.06 g
- Epididymal Fat weight ([2]; 0.001 μg/min infusion): 0.25 g
- Lean Mass, final weight ([2]; 0.001 μg/min infusion): 327.06 g
- Total Body Mass, final weight ([2]; 0.01 μg/min continuous sc infusion from 6 to 14 weeks of age): 388.16 g
- Epididymal Fat weight ([2]; 0.01 μg/min infusion): 0.33 g
- Lean Mass, final weight ([2]; 0.01 μg/min infusion): 388.16 g
- Mean Plasma Glucose [2, 3]: 139.99 mg/dL
- Mean Plasma Insulin [2, 3]: 9.81 ng/mL
- Mean Plasma Glucose [2, 4]: 139.86 mg/dL
- Mean Plasma Insulin [2, 4]: 11.21 ng/mL
- Mean Plasma Glucose [2, 5]: 155.34 mg/dL
- Mean Plasma Insulin [2, 5]: 23.91 ng/mL
- Mean Plasma Glucose [2, 6]: 148.68 mg/dL
- Mean Plasma Insulin [2, 6]: 24.76 ng/mL
- Mean Plasma Glucose [2, 7]: 183.41 mg/dL
- Mean Plasma Insulin [2, 7]: 27.33 ng/mL
- Mean Plasma Glucose [2, 8]: 165.01 mg/dL
- Mean Plasma Insulin [2, 8]: 26.81 ng/mL
- Mean Plasma Glucose [2, 9]: 331.91 mg/dL
- Mean Plasma Insulin [2, 9]: 21.11 ng/mL
- Mean Plasma Glucose [2, 10]: 215.49 mg/dL
- Mean Plasma Insulin [2, 10]: 24.23 ng/mL
- Mean Plasma Glucose [2, 11]: 389.18 mg/dL
- Mean Plasma Insulin [2, 11]: 20.18 ng/mL
- Mean Plasma Glucose [2, 12]: 235.91 mg/dL
- Mean Plasma Insulin [2, 12]: 27.85 ng/mL
- Mean Plasma Glucose [2, 13]: 392.65 mg/dL
- Mean Plasma Insulin [2, 13]: 20.98 ng/mL
- Mean Plasma Glucose [2, 14]: 232.89 mg/dL
- Mean Plasma Insulin [2, 14]: 30.05 ng/mL
- Mean Plasma Glucose [2, 15]: 496.75 mg/dL
- Mean Plasma Insulin [2, 15]: 21.48 ng/mL
- Mean Plasma Glucose [2, 16]: 317.11 mg/dL
- Mean Plasma Insulin [2, 16]: 36.45 ng/mL
- Mean Plasma Glucose [2, 17]: 446.03 mg/dL
- Mean Plasma Insulin [2, 17]: 16.29 ng/mL
- Mean Plasma Glucose [2, 18]: 248.28 mg/dL
- Mean Plasma Insulin [2, 18]: 29.92 ng/mL
- Mean Plasma Glucose ([2]; age 14 weeks, 0.001 μg/min continuous infusion): 461.40 mg/dL
- Mean Plasma Glucose ([2]; age 14 weeks, 0.01 μg/min continuous infusion): 229.36 mg/dL
